Test results taken from patent US4468511A, “C-20- And C-23-Modified macrolide derivatives” (Eli Lilly and Company, priority 1983, dated 1984).
Converted amounts (≈) assume the structure as drawn.

Tests used:
Assay type in all cases: cell-based
[1] = system: Staphylococcus aureus X400; assay: MIC, standard agar-dilution assay; conditions: Staphylococcus aureus, X400
Protocol: (§1) The MIC's in Table II were determined by standard agar-dilution assays. The MIC's in Table III were obtained using a conventional broth-dilution microtiter test.

[2] = system: Staphylococcus epidermidis EPI2; assay: MIC, standard agar-dilution assay; conditions: Staphylococcus epidermidis, EPI2
Protocol: as §1

[3] = system: Pasteurella multocida 60A; assay: MIC, conventional broth-dilution microtiter test; conditions: Pasteurella multocida, 60A
Protocol: (§2) Certain of the derivatives are active against some gram-negative bacteria, such as Pasteurella species. The MIC's in Table II were determined by standard agar-dilution assays. The MIC's in Table III were obtained using a conventional broth-dilution microtiter test.

[4] = system: Staphylococcus aureus; assay: MIC, conventional broth-dilution microtiter test
Protocol: as §2

[5] = system: Pasteurella multocida 22A; assay: MIC, conventional broth-dilution microtiter test; conditions: Pasteurella multocida, 22A
Protocol: as §2

[6] = system: Pasteurella hemolytica 22C; assay: MIC, conventional broth-dilution microtiter test; conditions: Pasteurella, 22C
Protocol: as §2

[7] = system: Mycoplasma gallisepticum; assay: MIC, conventional broth-dilution microtiter test; conditions: Mycoplasmoides gallisepticum
Protocol: as §2

[8] = system: Pasteurella hemolytica 23C; assay: MIC, conventional broth-dilution microtiter test; conditions: Pasteurella, 23C
Protocol: as §2

[9] = system: Streptococcus sp. 80; assay: MIC, conventional broth-dilution microtiter test; conditions: Streptococcus, SP.80
Protocol: as §2

[10] = system: Mycoplasma synoviae; assay: MIC, conventional broth-dilution microtiter test; conditions: Mycoplasmopsis synoviae
Protocol: as §2

[11] = system: Pasteurella multocida 40G; assay: MIC, conventional broth-dilution microtiter test; conditions: Pasteurella multocida, 40G
Protocol: as §2

[12] = system: Mycoplasma hyorhinis; assay: MIC, conventional broth-dilution microtiter test; conditions: Mycoplasma
Protocol: as §2

[13] = system: Pasteurella multocida 17E; assay: MIC, conventional broth-dilution microtiter test; conditions: Pasteurella multocida, 17E
Protocol: as §2

[14] = system: Pasteurella hemolytica 41D; assay: MIC, conventional broth-dilution microtiter test; conditions: Pasteurella, 41D
Protocol: as §2

[15] = system: Mycoplasma gallisepticum 41313; assay: MIC, conventional broth-dilution microtiter test; conditions: Mycoplasmoides gallisepticum, 41313
Protocol: as §2

[16] = system: Mycoplasma gallisepticum 34159; assay: MIC, conventional broth-dilution microtiter test; conditions: Mycoplasmoides gallisepticum, 34159
Protocol: as §2

[17] = system: Pasteurella multocida 68C; assay: MIC, conventional broth-dilution microtiter test; conditions: Pasteurella multocida, 68C
Protocol: as §2

[18] = system: Streptococcus Group D X66; assay: MIC, standard agar-dilution assay
Protocol: as §2

[19] = system: Klebsiella pneumoniae X26; assay: MIC, standard agar-dilution assay; conditions: Klebsiella pneumoniae, X26
Protocol: as §2

[20] = system: Escherichia coli EC14; assay: MIC, standard agar-dilution assay; conditions: Escherichia coli, EC14
Protocol: as §2

[21] = system: Staphylococcus aureus V41; assay: MIC, standard agar-dilution assay; conditions: Staphylococcus aureus, V41
Protocol: as §2

[22] = system: Staphylococcus aureus X1.1; assay: MIC, standard agar-dilution assay; conditions: Staphylococcus aureus, X1.1
Protocol: as §2

[23] = system: Streptococcus pyogenes 9960; assay: MIC, standard agar-dilution assay; conditions: 9960
Protocol: as §2

[24] = system: Escherichia coli TEM; assay: MIC, standard agar-dilution assay; conditions: Escherichia coli
Protocol: as §2

[25] = system: Streptococcus pyogenes C203; assay: MIC, standard agar-dilution assay; conditions: Streptococcus pyogenes, C203
Protocol: as §2

[26] = system: Streptococcus pneumoniae Park I; assay: MIC, standard agar-dilution assay; conditions: Streptococcus pneumoniae
Protocol: as §2

[27] = system: Klebsiella pneumoniae KAE; assay: MIC, standard agar-dilution assay; conditions: Klebsiella pneumoniae
Protocol: as §2

[28] = system: Staphylococcus aureus S13E; assay: microbe, parasite or virus in culture
Protocol: as §1

[29] = system: Staphylococcus epidermidis EPI1; assay: microbe, parasite or virus in culture; conditions: Staphylococcus epidermidis, EPI1
Protocol: as §1

Compound | MIC [1] | MIC [2] | MIC [3] | MIC [4] | MIC [5] | MIC [6] | MIC [7] | MIC [8] | MIC [9] | MIC [10] | MIC [11] | MIC [12] | MIC [13] | MIC [14] | MIC [15] | MIC [16] | MIC [17] | MIC [18] | MIC [19] | MIC [20] | further results
CCC1OC(=O)CC(O)C(C)C(OC2OC(C)C(OC(C)=O)C(N(C)C)C2OC(C)=O)C(CCOC(=O)Cc2ccccc2)CC(C)C(=O)C=CC(C)=CC1CO (stereo not shown) [Compound 54, 2',4'-Di-O-acetyl-20-O-phenylacetyl-20-dihydro-OMT] | 2 µg/mL (≈ 2.49 µM) | 2 µg/mL (≈ 2.49 µM) | 6.25 µg/mL (≈ 7.79 µM) | 0.78 µg/mL (≈ 0.973 µM) | 25 µg/mL (≈ 31.2 µM) | 12.5 µg/mL (≈ 15.6 µM) | 0.048 µg/mL (≈ 0.0599 µM) | 12.5 µg/mL (≈ 15.6 µM) | 3.12 µg/mL (≈ 3.89 µM) | 25 µg/mL (≈ 31.2 µM) | 25 µg/mL (≈ 31.2 µM) | 50 µg/mL (≈ 62.3 µM) | 12.5 µg/mL (≈ 15.6 µM) | 12.5 µg/mL (≈ 15.6 µM) | 0.78 µg/mL (≈ 0.973 µM) | 3.12 µg/mL (≈ 3.89 µM) | 6.25 µg/mL (≈ 7.79 µM) | 4 µg/mL (≈ 4.99 µM) | 4 µg/mL (≈ 4.99 µM) | > 128 µg/mL | MIC [21]: 2 µg/mL (≈ 2.49 µM); MIC [22]: 2 µg/mL (≈ 2.49 µM); MIC [23]: 4 µg/mL (≈ 4.99 µM); MIC [24]: 16 µg/mL (≈ 20 µM); MIC [25]: 1 µg/mL (≈ 1.25 µM); MIC [26]: 0.5 µg/mL (≈ 0.623 µM); MIC [27]: > 128 µg/mL; MIC [28]: 2 µg/mL (≈ 2.49 µM); MIC [29]: 2 µg/mL (≈ 2.49 µM)
CCC1OC(=O)CC(O)C(C)C(OC2OC(C)C(OC(C)=O)C(N(C)C)C2OC(C)=O)C(CCOC(=O)Cc2ccccc2)CC(C)C(=O)C=CC(C)=CC1COC(=O)Cc1ccccc1 (stereo not shown) [Compound 55, 2',4'-di-O-acetyl-20,23-di-O-phenylacetyl-20-dihydro-OMT] | 8 µg/mL (≈ 8.69 µM) | 2 µg/mL (≈ 2.17 µM) | 50 µg/mL (≈ 54.3 µM) | 0.78 µg/mL (≈ 0.848 µM) | > 50 µg/mL | > 50 µg/mL | 0.097 µg/mL (≈ 0.105 µM) | > 50 µg/mL | 1.56 µg/mL (≈ 1.7 µM) | 6.25 µg/mL (≈ 6.79 µM) | > 50 µg/mL | 50 µg/mL (≈ 54.3 µM) | > 50 µg/mL | > 50 µg/mL | 0.78 µg/mL (≈ 0.848 µM) | 3.12 µg/mL (≈ 3.39 µM) | > 50 µg/mL | 8 µg/mL (≈ 8.69 µM) | > 128 µg/mL | > 128 µg/mL | MIC [21]: 8 µg/mL (≈ 8.69 µM); MIC [22]: 8 µg/mL (≈ 8.69 µM); MIC [23]: 8 µg/mL (≈ 8.69 µM); MIC [24]: > 128 µg/mL; MIC [25]: 2 µg/mL (≈ 2.17 µM); MIC [26]: 1 µg/mL (≈ 1.09 µM); MIC [27]: > 128 µg/mL; MIC [28]: 4 µg/mL (≈ 4.35 µM); MIC [29]: 4 µg/mL (≈ 4.35 µM)
